These results are taken from US12673970B2, “Neuroactive steroids and their methods of use” (priority 2020, dated 2026).

pIC50: −log10 of the molar value.

The subject of the first assay is GABAA receptor ([35S]-TBPS binding, rat brain cortical membranes).
Test: not given
To be noted: statement on the positive control; cited from earlier work.
On to Picrotoxin, for which the “inhibition of TBPS binding (positive control)” value is on record as “robustly inhibit TBPS binding”.

Another assay addresses GABAA receptor ([35S]-TBPS binding, rat brain cortical membranes). The assay is described as follows: Steroid inhibition of [35S]-TBPS binding. The following applies: 3 nM [35S]-TBPS, in the presence of 5 mM GABA. Here is the method: [35S]-t-Butylbicyclophosphorothionate (TBPS) binding assays using rat brain cortical membranes in the presence of 5 mM GABA has been described (Gee et al, J. Pharmacol. Exp. Ther. 1987, 241, 346-353; Hawkinson et al, Mol. Pharmacol. 1994, 46, 977-985; Lewin, A. H et al., Mol. Pharmacol. 1989, 35, 189-194).
Briefly, cortices are rapidly removed following decapitation of carbon dioxide-anesthetized Sprague-Dawley rats (200-250 g). The cortices are homogenized in 10 volumes of ice-cold 0.32 M sucrose using a glass/teflon homogenizer and centrifuged at 1500×g for 10 min at 4° C. The resultant supernatants are centrifuged at 10,000×g for 20 min at 4° C. to obtain the P2 pellets. The P2 pellets are resuspended in 200 mM NaCl/50 mM Na—K phosphate pH 7.4 buffer and centrifuged at 10,000×g for 10 min at 4° C. This washing procedure is repeated twice and the pellets are resuspended in 10 volumes of buffer. Aliquots ([…]) of the membrane suspensions are incubated with 3 nM [35S]-TBPS and 5 mL aliquots of test drug dissolved in dimethyl sulfoxide (DMSO) (final 0.5%) in the presence of 5 mM GABA. The incubation is brought to a final volume of 1.0 mL with buffer. Nonspecific binding is determined in the presence of […] and ranged from 15 to 25%. Following a 90 min incubation at room temp, the assays are terminated by filtration through glass fiber filters (Schleicher and Schuell No. 32) using a cell harvester (Brandel) and rinsed three times with ice-cold buffer. Filter bound radioactivity is measured by liquid scintillation spectrometry. Non-linear curve fitting of the overall data for each drug averaged for each concentration is done using Prism (GraphPad). […] The concentration of test compound producing 50% inhibition (IC50) of specific binding and the maximal extent of inhibition (Imax) are determined for the individual experiments with the same model used for the overall data and then the means±SEM.s of the individual experiments are calculated.
Various compounds are or can be screened to determine their potential as modulators of [35S]-TBPS binding in vitro. These assays are or can be performed in accordance with the above
What is called pIC50 is the IC50 on a negative log10 scale, so that one unit is a factor of ten. With `C[C@@]1(O)CC[C@H]2[C@H](CC[C@@H]3[C@@H]2CC[C@]2(C)[C@@H](CC(=O)c4ccc(C#N)cc4)CC[C@@H]32)C1` [Example 12, 4-(2-((3R,5R,8R,9R,10S,13R,14S,17R)-3-hydroxy-3,13-dimethylhexadecahydro-1H-cyclopenta[a]phenanthren-17-yl)acetyl)benzonitrile], the pIC50 is > 7.00.

Take `COC[C@@]1(O)CC[C@@]2(C)[C@H](CC[C@@H]3[C@@H]2CC[C@]2(C)[C@@H](C(=O)CCn4cc(C#N)cn4)CC[C@@H]32)C1` [Example 13, 1-(3-((3R,5R,8R,9S,10S,13S,14S,17S)-3-hydroxy-3-(methoxymethyl)-10,13-dimethylhexadecahydro-1H-cyclopenta[a]phenanthren-17-yl)-3-oxopropyl)-1H-pyrazole-4-carbonitrile]: the negative logarithm of the IC50 (pIC50) is > 7.00.

With `C[C@@]1(O)CC[C@H]2[C@@H](CC[C@@H]3[C@@H]2CC[C@]2(C)[C@@H](C(=O)CCn4cc(C#N)cn4)CC[C@@H]32)C1` [Example 1, 1-(3-((3R,5S,8R,9R,10S,13S,14S,17S)-3-hydroxy-3,13-dimethylhexadecahydro-1H-cyclopenta[a]phenanthren-17-yl)-3-oxopropyl)-1H-pyrazole-4-carbonitrile], the pIC50 is > 7.00.

Regarding `COC[C@@]1(O)CC[C@H]2[C@@H](CC[C@@H]3[C@@H]2CC[C@]2(C)[C@@H](C(=O)CCn4cc(C#N)cn4)CC[C@@H]32)C1` [Example 2, 1-(3-((3R,5S,8R,9R,10S,13S,14S,17S)-3-hydroxy-3-(methoxymethyl)-13-methylhexadecahydro-1H-cyclopenta[a]phenanthren-17-yl)-3-oxopropyl)-1H-pyrazole-4-carbonitrile], the pIC50 was > 7.00.

As for `C[C@@H](C(=O)Cn1cc(C#N)cn1)[C@H]1CC[C@H]2[C@@H]3CC[C@@H]4C[C@](C)(O)CC[C@@H]4[C@H]3CC[C@]12C` [Example 11, 1-((R)-3-((3R,5R,8R,9R,10S,13S,14S,17R)-3-hydroxy-3,13-dimethylhexadecahydro-1H-cyclopenta[a]phenanthren-17-yl)-2-oxobutyl)-1H-pyrazole-4-carbonitrile], the negative-log IC50 (pIC50) is 6.00 to 7.00.

As to `C[C@@]1(O)CC[C@H]2[C@H](CC[C@@H]3[C@@H]2CC[C@]2(C)[C@@H](C(=O)CCCCn4cc(C#N)cn4)CC[C@@H]32)C1` [Example 4, 1-(5-((3R,5R,8R,9R,10S,13S,14S,17S)-3-hydroxy-3,13-dimethylhexadecahydro-1H-cyclopenta[a]phenanthren-17-yl)-5-oxopentyl)-1H-pyrazole-4-carbonitrile], the negative logarithm of the IC50 (pIC50) was > 7.00.

For the molecule `CC(C)(C(=O)C[C@H]1CC[C@H]2[C@@H]3CC[C@@H]4C[C@](C)(O)CC[C@@H]4[C@H]3CC[C@]12C)n1cc(C#N)cn1` [Example 7, 1-(4-((3R,5R,8R,9R,10S,13R,14S,17R)-3-hydroxy-3,13-dimethylhexadecahydro-1H-cyclopenta[a]phenanthren-17-yl)-2-methyl-3-oxobutan-2-yl)-1H-pyrazole-4-carbonitrile], the pIC50 was 6.00 to 7.00.

Regarding `C[C@H](C(=O)Cn1cc(C#N)cn1)[C@H]1CC[C@H]2[C@@H]3CC[C@@H]4C[C@](C)(O)CC[C@@H]4[C@H]3CC[C@]12C` [Example 10, 1-((S)-3-((3R,5R,8R,9R,10S,13S,14S,17R)-3-hydroxy-3,13-dimethylhexadecahydro-1H-cyclopenta[a]phenanthren-17-yl)-2-oxobutyl)-1H-pyrazole-4-carbonitrile], the pIC50 is > 7.00.

For `C[C@@]1(O)CC[C@H]2[C@H](CC[C@@H]3[C@@H]2CC[C@]2(C)[C@@H](CC(=O)Cn4cc(C#N)cn4)CC[C@@H]32)C1` [Example 5, 1-(3-((3R,5R,8R,9R,10S,13R,14S,17R)-3-hydroxy-3,13-dimethylhexadecahydro-1H-cyclopenta[a]phenanthren-17-yl)-2-oxopropyl)-1H-pyrazole-4-carbonitrile], the pIC50 was 6.00 to 7.00.

Turning to `C[C@@H](C(=O)C[C@H]1CC[C@H]2[C@@H]3CC[C@@H]4C[C@](C)(O)CC[C@@H]4[C@H]3CC[C@]12C)n1cc(C#N)cn1` [Example 9, 1-((S)-4-((3R,5R,8R,9R,10S,13R,14S,17R)-3-hydroxy-3,13-dimethylhexadecahydro-1H-cyclopenta[a]phenanthren-17-yl)-3-oxobutan-2-yl)-1H-pyrazole-4-carbonitrile], the pIC50 was 6.00 to 7.00.

In the case of `C[C@H](C(=O)C[C@H]1CC[C@H]2[C@@H]3CC[C@@H]4C[C@](C)(O)CC[C@@H]4[C@H]3CC[C@]12C)n1cc(C#N)cn1` [Example 8, 1-((R)-4-((3R,5R,8R,9R,10S,13R,14S,17R)-3-hydroxy-3,13-dimethylhexadecahydro-1H-cyclopenta[a]phenanthren-17-yl)-3-oxobutan-2-yl)-1H-pyrazole-4-carbonitrile], the pIC50 was 6.00 to 7.00.

As for `C[C@@]1(O)CC[C@H]2[C@H](CC[C@@H]3[C@@H]2CC[C@]2(C)[C@@H](C(=O)CCCn4cc(C#N)cn4)CC[C@@H]32)C1` [Example 3, 1-(4-((3R,5R,8R,9R,10S,13S,14S,17S)-3-hydroxy-3,13-dimethylhexadecahydro-1H-cyclopenta[a]phenanthren-17-yl)-4-oxobutyl)-1H-pyrazole-4-carbonitrile], the pIC50 is > 7.00.
